The compounds below were run on Human Jurkat T-cells (clone N) (assay: Jurkat T-cell activation (anti-TCR, CD69 upregulation)). Conditions: not given.
Type: cell-based
Experimental: The screening process took place over three days.
On the first day of the screen, cultured cells were spun down on a centrifuge (1000 rpm, 5 minutes) and resuspended at 3.0×10^5 cells/ml in RPMI+5% FBS. On the second day of the screen, cells were spun down at 1000 rpm for 5 minutes and resuspended in RPMI+5% FBS at 1.3×10^5 cells/ml. 85 μl of this cell suspension were added to the wells of U-bottom 96 well plates (Corning) 85 μl of compound or diluted RPMI+5% FBS (as a control) only was added to each well and incubated at 37° C. for 1 hour. The cells were then stimulated with anti-TCR (C305) at: 500 ng/ml by adding a 8× solution in 25 μl to the plated cells. The cells were then incubated at 37° C. for 20 hrs.
On the third day of the screen, the plates were spun at 2500 RPM for 1 minute on a Beckman GS-6R centrifuge, and the medium was then removed. 50 μl staining solution (1:100 dilution of anti-CD69-APC antibody (Becton Dickenson) in PBS+2% FBS) was then added to each well, followed by incubation of the plates 4 degrees for 20 minutes in the dark. 150 μl of wash buffer (PBS+2% FBS) was then added to each well, and the plates were spun at 3000 RPM for 1 minute. The supernatant was again removed, and the pellet was resuspended by vortexing gently. 75 μl of PBS+2% FBS +Cytofix (1:4 dilution) was then added, the plates gently vortexed and wrap in aluminum foil. Cells from the plates were read using a flow cytometer coupled to an automated liquid handling system.
Varied concentrations of compound were compared to solvent only to determine the inhibition of T-cell activation IC50 of each compound.

Structure (SMILES) | IC50
N#Cc1cnc(Nc2ccc(OCC(=O)N3CCCCC3)cc2)nc1Nc1ccc(OCC(=O)N2CCCCC2)cc1 [Compound R925855] | > 10 µM
CCOC(=O)CNc1nc(Nc2ccc(OCC(=O)OCC)cc2)nc(C(=O)OCC)c1[N+](=O)[O-] [Compound R925858] | > 10 µM
CCCCNC(=O)COc1ccc(Nc2ncc(C#N)c(Nc3ccc(OCC(=O)NCCCC)cc3)n2)cc1 [Compound R925860] | 41.9 µM
CC(C)NC(=O)COc1ccc(Nc2ncc(C#N)c(Nc3ccc(OCC(=O)NC(C)C)cc3)n2)cc1 [Compound R925861] | 20.2 µM
CCOC(=O)COc1ccc(Nc2ncc(C(F)(F)F)c(Nc3ccc(OCC(=O)OCC)cc3)n2)cc1 [Compound R925862] | > 10 µM
Fc1cnc(Nc2ccc(N3CCOCC3)cc2)nc1Nc1ccc(N2CCOCC2)cc1 [Compound R926114] | 9.91 µM
O=C(O)COc1ccc(Nc2ncc(F)c(Nc3ccc4c(c3)OCCO4)n2)cc1 [Compound R926238] | > 10 µM
COC(=O)COc1ccc(Nc2ncc(F)c(Nc3ccc(OCC(=O)OC)cc3)n2)cc1 [Compound R926240] | > 10 µM
CCOC(=O)c1cnc(Nc2ccc(OCC(=O)OC)cc2)nc1Nc1ccc(OCC(=O)OC)cc1 [Compound R926253] | > 10 µM
COC(=O)COc1cccc(Nc2ncc(F)c(Nc3cccc(OCC(=O)OC)c3)n2)c1 [Compound R926255] | > 10 µM
COC(=O)COc1ccc(Nc2ccnc(Nc3ccc(OCC(=O)OC)cc3)n2)cc1 [Compound R926256] | > 10 µM
COC(=O)COc1ccc(Nc2ncc(C)c(Nc3ccc(OCC(=O)OC)cc3)n2)cc1 [Compound R926258] | > 10 µM
CCOC(=O)c1cnc(Nc2ccc3cn[nH]c3c2)nc1Nc1ccc2cn[nH]c2c1 [Compound R926320] | > 10 µM
CCOC(=O)c1cnc(Nc2ccc3c(c2)NC(=O)CO3)nc1Nc1ccc2c(c1)NC(=O)CO2 [Compound R926325] | > 10 µM
Cc1ccc(Nc2ncc(F)c(Nc3ccc(C)c(O)c3)n2)cc1O [Compound R926341] | 3.68 µM
CCOC(=O)COc1ccc(Nc2ncc(F)c(Nc3cccc(O)c3)n2)cc1 [Compound R926395] | 17.7 µM
CCOC(=O)COc1ccc(Nc2ncc(Br)c(Nc3cccc(O)c3)n2)cc1 [Compound R926396] | 6.59 µM
COc1ccc(Nc2ncc(F)c(Nc3ccc(OC)c(-c4ccccc4)c3)n2)cc1-c1ccccc1 [Compound R926399] | > 10 µM
COc1ccc(-c2ccccc2)cc1Nc1ncc(F)c(Nc2cc(-c3ccccc3)ccc2OC)n1 [Compound R926400] | > 10 µM
COc1cc(-c2ccccc2)c(C)cc1Nc1ncc(F)c(Nc2cc(C)c(-c3ccccc3)cc2OC)n1 [Compound R926401] | > 10 µM
Cc1ccc(-c2ccccc2)cc1Nc1ncc(F)c(Nc2cc(-c3ccccc3)ccc2C)n1 [Compound R926402] | > 10 µM
COC(=O)COc1ccc(Nc2cc(Cl)nc(Nc3ccc(OCC(=O)OC)cc3)n2)cc1 [Compound R926411] | 16.9 µM

Same assay, conditions: Homo sapiens

Structure (SMILES) | IC50
CC(C)NC(=O)Oc1cccc(Nc2ncc(F)c(Nc3cccc(OC(=O)NC(C)C)c3)n2)c1 [Compound R926412] | 2.38 µM

Same assay, conditions: Homo sapiens, Jurkat

Structure (SMILES) | IC50
CCOC(=O)c1nc(Nc2cccc(O)c2)nc(Nc2cccc(O)c2)c1N [Compound R925856] | > 10 µM
CCOC(=O)c1nc(Nc2ccc3c(c2)OCCO3)nc(Nc2ccc3c(c2)OCCO3)c1N [Compound R925857] | > 10 µM
Oc1cccc(Nc2ncc(C(F)(F)F)c(Nc3cccc(O)c3)n2)c1 [Compound R925863] | 2.96 µM
CCOC(=O)CNc1nc(NCC(=O)OCC)c([N+](=O)[O-])c(C(=O)OCC)n1 [Compound R925864] | 19.1 µM
CCOC(=O)CNc1nc(NCC(=O)OCC)c(N)c(C(=O)OCC)n1 [Compound R925865] | > 10 µM
Fc1cnc(Nc2ccc(C(F)(F)F)cc2)nc1Nc1ccc(C(F)(F)F)cc1 [Compound R926016] | > 10 µM
COc1ccc(Nc2ncc(F)c(Nc3ccc(OC)cc3)n2)cc1 [Compound R926017] | 20.8 µM
Fc1cc(Nc2ncc(F)c(Nc3ccc(C(F)(F)F)c(F)c3)n2)ccc1C(F)(F)F [Compound R926018] | > 10 µM
Fc1cnc(Nc2cccc(OC(F)(F)F)c2)nc1Nc1cccc(OC(F)(F)F)c1 [Compound R926038] | > 10 µM
Fc1cnc(Nc2ccc(Cl)c(C(F)(F)F)c2)nc1Nc1ccc(Cl)c(C(F)(F)F)c1 [Compound R926039] | > 10 µM
CCOc1ccc(Nc2cc(C(=O)OC)nc(Nc3ccc(OCC)cc3)n2)cc1 [Compound R926058] | > 10 µM
CCOc1cccc(Nc2ncc(F)c(Nc3cccc(OCC)c3)n2)c1 [Compound R926064] | > 10 µM
COc1cccc(Nc2ncc(F)c(Nc3cccc(OC)c3)n2)c1 [Compound R926065] | 6.73 µM
CCOc1ccc(Nc2ncc(C)c(Nc3ccc(OCC)cc3)n2)cc1 [Compound R926068] | 11.4 µM
CCOc1ccc(Nc2ccnc(Nc3ccc(OCC)cc3)n2)cc1 [Compound R926069] | 4.31 µM
CCOc1ccc(Nc2cc(Cl)nc(Nc3ccc(OCC)cc3)n2)cc1 [Compound R926072] | > 10 µM
CN(C)c1ccc(Nc2ncc(F)c(Nc3ccc(N(C)C)cc3)n2)cc1 [Compound R926086] | 6.63 µM
CCOc1ccc(Nc2ncc(F)c(Nc3ccc(OC)c(OC)c3)n2)cc1 [Compound R926145] | 17.7 µM
COc1ccc(Nc2nc(Nc3cccc(O)c3)ncc2F)cc1OC [Compound R926147] | > 10 µM
Fc1cnc(Nc2ccc(Cl)cc2)nc1Nc1ccc(Cl)cc1 [Compound R926206] | > 10 µM
Fc1cnc(Nc2cccc(Cl)c2)nc1Nc1cccc(Cl)c1 [Compound R926209] | > 10 µM
CCOc1ccc(Nc2ncc(F)c(Nc3ccc4c(c3)OCCO4)n2)cc1 [Compound R926211] | 15 µM
COc1ccc(Nc2ncc(F)c(Nc3ccc4c(c3)OCCO4)n2)cc1OC [Compound R926212] | 0.56 µM
Fc1ccc(Nc2ncc(F)c(Nc3ccc4c(c3)OCCO4)n2)cc1Cl [Compound R926218] | > 10 µM
Fc1ccc(Nc2ncc(F)c(Nc3ccc4c(c3)OCCO4)n2)cc1 [Compound R926220] | > 10 µM

Structure (SMILES) | IC50
Fc1cccc(Nc2ncc(F)c(Nc3ccc4c(c3)OCCO4)n2)c1 [Compound R926221] | > 10 µM
CC(C)(C)c1ccc(Nc2ncc(F)c(Nc3ccc(C(C)(C)C)cc3)n2)cc1 [Compound R926222] | > 10 µM
Fc1ccc(Nc2ncc(F)c(Nc3ccc(F)c(Cl)c3)n2)cc1Cl [Compound R926223] | > 10 µM
Fc1ccc(Nc2ncc(F)c(Nc3ccc(F)cc3)n2)cc1 [Compound R926224] | > 10 µM
Cc1ccc(Nc2ncc(F)c(Nc3ccc(C)cc3)n2)cc1 [Compound R926225] | > 10 µM
CCOC(=O)c1cccc(Nc2ncc(F)c(Nc3cccc(C(=O)OCC)c3)n2)c1 [Compound R926228] | > 10 µM
COCCNc1ncc(F)c(Nc2ccc3c(c2)OCCO3)n1 [Compound R926229] | > 10 µM
COc1ccc(CNc2ncc(F)c(Nc3ccc4c(c3)OCCO4)n2)cc1 [Compound R926230] | > 10 µM
CCc1ccc(Nc2ncc(F)c(Nc3ccc(CC)cc3)n2)cc1 [Compound R926234] | > 10 µM
CCc1ccc(Nc2ncc(F)c(Nc3ccc4c(c3)OCCO4)n2)cc1 [Compound R926237] | > 10 µM
c1cc(Nc2ccc3c(c2)OCCO3)nc(Nc2ccc3c(c2)OCCO3)n1 [Compound R926243] | 2.99 µM
Clc1cc(Nc2ccc3c(c2)OCCO3)nc(Nc2ccc3c(c2)OCCO3)n1 [Compound R926245] | 11.1 µM
CCOC(=O)c1cnc(Nc2ccc(CC#N)cc2)nc1Nc1ccc(CC#N)cc1 [Compound R926319] | 15.6 µM
COc1ccc(Nc2ncc(F)c(Nc3ccc(OC)c(O)c3)n2)cc1O [Compound R926339] | 2.15 µM
CCOC(=O)Nc1ccc(Nc2ncc(F)c(Nc3ccc(NC(=O)OCC)c(O)c3)n2)cc1O [Compound R926340] | > 10 µM
OCCOc1ccc(Nc2ncc(F)c(Nc3cccc(O)c3)n2)cc1 [Compound R926376] | > 10 µM
Fc1cnc(Nc2ccc3c(c2)OC(F)(F)O3)nc1Nc1ccc2c(c1)OCCO2 [Compound R926386] | > 10 µM
Fc1cnc(Nc2cccc(OCc3ccccc3)c2)nc1Nc1cccc(OCc2ccccc2)c1 [Compound R926394] | > 10 µM
Cc1cnc(NCCc2ccc(O)cc2)nc1NCCc1ccc(O)cc1 [Compound R926397] | 12.5 µM
Fc1cnc(Nc2ccccc2-c2ccccc2)nc1Nc1ccccc1-c1ccccc1 [Compound R926398] | > 10 µM
Fc1cnc(Nc2cccc(-c3ccccc3)c2)nc1Nc1cccc(-c2ccccc2)c1 [Compound R926403] | > 10 µM
Cc1cnc(Nc2ccccc2-c2ccccc2)nc1Nc1ccccc1-c1ccccc1 [Compound R926404] | > 10 µM
Oc1ccc(Nc2ncc(F)c(Nc3ccc(O)cc3)n2)cc1 [Compound R926405] | 7.62 µM
Oc1cccc(Nc2cc(Cl)nc(Nc3cccc(O)c3)n2)c1 [Compound R926408] | > 10 µM
Oc1cccc(Nc2cc(Nc3cccc(O)c3)nc(Nc3cccc(O)c3)n2)c1 [Compound R926409] | 3.54 µM
